Assay results reported in patent publication US20230015691A1, “PROPHYLACTIC OR THERAPEUTIC AGENT FOR NON-ALCOHOLIC STEATOHEPATITIS IN HUMANS” (MITSUBISHI TANABE PHARMA CORPORATION, priority 2019, published 2023).

Assays:
Format in all cases: in vivo, human
[1] = Body weight change in NASH patients (clinical trial, 72 weeks); settings: 10 mg once daily; for Change from baseline/Weight, Mean (SD): NASH patients
Procedure: (§1) [Test Protocol] • Number of cases to be analyzed: 47 cases (placebo administration group: 23 cases; MT-3995 administration group: 24 cases) • The subjects were selected according to the following criteria.
Kleiner fibrosis classification: Stage 2 or Stage 3
(§2) • Pre-observation period (number of weeks): 10 weeks • Administration period (number of weeks): 72 weeks • Post-observation period (number of weeks): 8 weeks • Dosage and administration: MT-3995 administration group=once daily, 10 mg; placebo group=once-daily administration
Table 2 and FIG. 1 show the average amount of change in the body weight after the assignment, in the placebo group and the MT-3995 group. The body weight was measured at the time of the visit.

[2] = system: serum procollagen III N-Terminal Propeptide (PIIINP); test: Change in serum PIIINP level (Chemilumi PIIIP); settings: for Change from baseline/PIIINP, Mean / Change from baseline/PIIINP, LS Mean (95% CI): serum; for Change from baseline/PIIINP, LS Mean (95% CI): all NASH patients
Procedure: as §1, §2
Table 4-1 and FIG. 3-1 show the average amount of change in the serum procollagen III N-Terminal Propeptide (PIIINP) level after the assignment. For measurement of the serum PIIINP level, serum was prepared from blood collected from each patient, according to a conventional method. The prepared serum was subjected to a test. For the measurement, Chemilumi PIIIP (Siemens Healthcare Diagnostics K. K.) was used.
A stratified analysis was carried out for the subjects based on the presence or absence of complication with diabetes. DM represents the “group of patients complicated with diabetes”. A higher effect was found in the group of patients complicated with diabetes.
Further, a stratified analysis was carried out for the subjects based on the presence or absence of complication with hypertension. HP represents the “group of patients complicated with hypertension”. A higher effect was found in the group of patients complicated with hypertension.
Further, an analysis was carried out after dividing the subjects into patients with a BMI of not less than 30 and patients with a BMI of less than 30. In the figure, “<30” represents the group of patients with a BMI of less than 30, and “≥30” represents the group of patients with a BMI of not less than 30. A higher effect was found in the group of patients with a BMI of not less than 30.

liver stiffness = test: Change in liver stiffness (Shear Wave Elastography); settings: for Change from baseline/Liver stiffness (Shear Wave Elastography), Mean (SD): NASH patients, 10 mg once daily
Procedure: as §1, §2
The liver stiffness after the assignment was measured using Shear Wave Elastography or Fibro scan. Table 7 and FIG. 6 show the average amount of change in the liver stiffness according to Shear Wave Elastography. Table 8 and FIG. 7 show the average amount of change in the liver stiffness according to Fibro scan.

With `CC1(C)Oc2cc(NS(C)(=O)=O)ccc2N(c2ccc(F)cc2)C1=O` [MT-3995] the “Rate of body weight reduction versus placebo group” value ([1]; 72 weeks) was “higher in the MT-3995 administration group than in the placebo group”, the “Change from baseline/Weight, Mean (SD)” value ([1]; Week 12) was −1.39 (1.55) kg and the “Change from baseline/Weight, Mean (SD)” value ([1]; Week 24) was −1.73 (2.09) kg. The “Change from baseline/Weight, Mean (SD)” value ([1]; Week 36) was −1.88 (2.99) kg, the “Change from baseline/Weight, Mean (SD)” value ([1]; Week 48) was −2.15 (3.23) kg and the “Change from baseline/Weight, Mean (SD)” value ([1]; Week 60) was −2.23 (3.25) kg. The “Change from baseline/Weight, Mean (SD)” value ([1]; Week 72) was −2.21 (3.10) kg, the Body weight change ([1]; from the beginning of the administration) was “A decrease in the body weight was found” and the “Serum PIIINP level versus placebo group” value ([2]; Weeks 12, 24, and 48 after the beginning of the administration) was “significantly lower than the level in the placebo group”. For the same compound, the “Change from baseline/PIIINP, Mean” value ([2]; DM (patients complicated with diabetes), 10 mg once daily, Week 12) was -2.45 ng/mL, the “Change from baseline/PIIINP, Mean” value ([2]; DM (patients complicated with diabetes), 10 mg once daily, Week 24) was -2.47 ng/mL and the “Change from baseline/PIIINP, Mean” value ([2]; DM (patients complicated with diabetes), 10 mg once daily, Week 48) was -4.92 ng/mL. For the same compound, the “Change from baseline/PIIINP, Mean” value ([2]; DM (patients complicated with diabetes), 10 mg once daily, Week 72) was -5.00 ng/mL, the “Change from baseline/PIIINP, Mean” value ([2]; HP (patients complicated with hypertension), 10 mg once daily, Week 12) was -2.75 ng/mL and the “Change from baseline/PIIINP, Mean” value ([2]; HP (patients complicated with hypertension), 10 mg once daily, Week 24) was -3.64 ng/mL. For the same compound, the “Change from baseline/PIIINP, Mean” value ([2]; HP (patients complicated with hypertension), 10 mg once daily, Week 48) was -5.26 ng/mL, the “Change from baseline/PIIINP, Mean” value ([2]; HP (patients complicated with hypertension), 10 mg once daily, Week 72) was -4.98 ng/mL and the “Change from baseline/PIIINP, LS Mean (95% CI)” value ([2]; 10 mg once daily, Week 12) was −2.192 (−3.874, −0.510) ng/mL. The “Change from baseline/PIIINP, LS Mean (95% CI)” value ([2]; 10 mg once daily, Week 24) was −3.124 (−5.605, −0.643) ng/mL, the “Change from baseline/PIIINP, LS Mean (95% CI)” value ([2]; 10 mg once daily, Week 48) was −3.987 (−5.756, −2.218) ng/mL and the “Change from baseline/PIIINP, LS Mean (95% CI)” value ([2]; 10 mg once daily, Week 72) was −3.930 (−5.714, −2.146) ng/mL. For the same compound, the “Change from baseline/PIIINP, Mean” value ([2]; non-DM patients, 10 mg once daily, Week 12) was -2.34 ng/mL, the “Change from baseline/PIIINP, Mean” value ([2]; non-DM patients, 10 mg once daily, Week 24) was -4.19 ng/mL and the “Change from baseline/PIIINP, Mean” value ([2]; non-DM patients, 10 mg once daily, Week 48) was -3.14 ng/mL. The “Change from baseline/PIIINP, Mean” value ([2]; non-DM patients, 10 mg once daily, Week 72) was -2.89 ng/mL, the “Change from baseline/PIIINP, Mean” value ([2]; non-HP patients, 10 mg once daily, Week 12) was -1.69 ng/mL and the “Change from baseline/PIIINP, Mean” value ([2]; non-HP patients, 10 mg once daily, Week 24) was -2.71 ng/mL. For the same compound, the “Change from baseline/PIIINP, Mean” value ([2]; non-HP patients, 10 mg once daily, Week 48) was -1.89 ng/mL, the “Change from baseline/PIIINP, Mean” value ([2]; non-HP patients, 10 mg once daily, Week 72) was -2.13 ng/mL and the “Change from baseline/PIIINP, Mean” value ([2]; patients with BMI < 30, 10 mg once daily, Week 12) was -2.33 ng/mL. The “Change from baseline/PIIINP, Mean” value ([2]; patients with BMI < 30, 10 mg once daily, Week 24) was -3.86 ng/mL, the “Change from baseline/PIIINP, Mean” value ([2]; patients with BMI < 30, 10 mg once daily, Week 48) was -2.58 ng/mL and the “Change from baseline/PIIINP, Mean” value ([2]; patients with BMI < 30, 10 mg once daily, Week 72) was -2.40 ng/mL. For the same compound, the “Change from baseline/PIIINP, Mean” value ([2]; patients with BMI ≥ 30, 10 mg once daily, Week 12) was -2.46 ng/mL, the “Change from baseline/PIIINP, Mean” value ([2]; patients with BMI ≥ 30, 10 mg once daily, Week 24) was -2.79 ng/mL and the “Change from baseline/PIIINP, Mean” value ([2]; patients with BMI ≥ 30, 10 mg once daily, Week 48) was -5.24 ng/mL. The “Change from baseline/PIIINP, Mean” value ([2]; patients with BMI ≥ 30, 10 mg once daily, Week 72) was -5.24 ng/mL, the “Serum PIIINP value versus beginning of the administration” value ([2]; throughout the treatment period) was “lower than the value observed at the beginning of the administration” and the “Change from baseline/Liver stiffness (Shear Wave Elastography), Mean (SD)” value (“Change from baseline/Liver stiffness … (SD)” below) (liver stiffness; Week 12) was −4.57 (2.48) kPa. For the same compound, the “Change from baseline/Liver stiffness … (SD)” value (liver stiffness; Week 24) was −5.63 (3.23) kPa, the “Change from baseline/Liver stiffness … (SD)” value (liver stiffness; Week 48) was −4.90 (4.38) kPa and the “Change from baseline/Liver stiffness … (SD)” value (liver stiffness; Week 72) was −6.00 (5.23) kPa. For the same compound, the “Liver stiffness versus beginning of the administration” value (liver stiffness; Shear Wave Elastography, throughout the treatment period) was “lower than the value observed at the beginning of the administration”.
